Key:
BRD4BD2 = biological target: T1, BRD4BD2 (Homo sapiens, UniProt O60885); experiment: AlphaScreen displacement binding assay with tetra-acetylated histone H4 peptide, BRD4BD2; settings: displacement of H4K5acK8acK12acK16ac peptide
T1 construct: His; purchased Reaction Biology
Experimental: (§1) In effort to enhance its potency, we designed a new set of chemotypes by in silico screening. […] These compounds were synthesized and their activities toward BRD4BD1 and BRD4BD2 were assessed in a displacement binding assay using the polyacetylated histone H4 peptide H4K5acK8acK12acK16ac as a ligand (Fig. 1b).
(§2) PI3K activity screening and IC50 measurements were performed by Life Technologies (Thermo Fisher Scientific) using ADAPTA, a fluorescence-based in vitro assay.

PI3Kα = biological target: T2, PI3Kα (Homo sapiens, UniProt P42336); experiment: PI3K kinase screening assay (ADAPTA); assay type: biochemical
T2 construct: purchased Life Technologies (Thermo Fisher Scientific)
Experimental: as §1, §2

BRD4BD1 = biological target: T3, BRD4BD1 (Homo sapiens, UniProt O60885); experiment: AlphaScreen displacement binding assay with tetra-acetylated histone H4 peptide, BRD4BD1; settings: for IC50: displacement of H4K5acK8acK12acK16ac peptide
T3 construct: His; purchased Reaction Biology
Experimental: as §1, §2

JeKo-1 cells [1] = experiment: CellTiter-Glo cell viability assay, JeKo-1; assay type: cell-based; settings: Homo sapiens, mantle cell lymphoma, 48 h, read-out: IC50 anti-proliferative activity, JeKo-1
From the text: (§3) Although many inhibitors of BRD4 have been developed, the importance of inhibition of both BDs to subdue pathological processes remains unclear, as the two bromodomains have high sequence similarity. We therefore examined whether inhibition of only one bromodomain of BRD4 could lead to sufficient anti-cancer effects.
(§4) All cell lines were obtained from ATCC and tested for mycoplasma and mouse pathogens and checked for authenticity against the International Cell Line Authentication Committee (ICLAC; https://iclac.org/databases/cross-contaminations/) list. Cell viability measurements were performed using CellTiter-Glo luminescent cell viability assay (Promega). […] Cell Titer Glow assay reagent (100 µl) was added to each well and incubated for 10 min at room temperature. Luminescence signal was measured in a Varioscan multimode reader.

PC3 cells = experiment: CellTiter-Glo cell viability assay, PC3; assay type: cell-based; settings: PTEN mutated, 48 h
From the text: as §3, §4

Z138 cells = experiment: CellTiter-Glo cell viability assay, Z138; assay type: cell-based; settings: Homo sapiens, Z-138, mantle cell lymphoma, 48 h, read-out: IC50 anti-proliferative activity, Z138
From the text: as §3, §4

Mino cells = experiment: CellTiter-Glo cell viability assay, Mino; assay type: cell-based; settings: Homo sapiens, mantle cell lymphoma, 48 h, read-out: IC50 anti-proliferative activity, Mino
From the text: as §3, §4

SKNBE-2 cells = experiment: CellTiter-Glo cell viability assay, SKNBE-2; assay type: cell-based; settings: Homo sapiens, SKNBE2, 48 h, read-out: IC50 anti-proliferative activity, neuroblastoma (SKNBE-2)
From the text: as §3, §4

[2] = test system: AKT phosphorylation at Ser473 (PI3K activity) in JeKo-1 cells; experiment: Western blot of AKT phosphorylation at Ser473 in IgM-stimulated JeKo-1 cells; assay type: cell-based; settings: JeKo-1 cells stimulated with IgM, 1 h incubation, increasing concentrations up to 5 µM
Experimental: as §3
Cells were resuspended with 1 ml of RPMI-1640 (serum free) and stimulated with 10 µg/ml of goat F(ab) 2 anti-human IgM antibody (Southern Biotech Birmingham, AL, USA) at 37 °C for 10 min. Cells were then harvested and lysed with RIPA buffer followed by Western blot analysis for pAKT expression.

Huh7 cells [3] = experiment: Propidium iodide flow cytometry cell cycle analysis, Huh7; assay type: cell-based; settings: 24 h
Experimental: (§5) (Fig. 2a). […] Palbociclib was used as control given its known inhibition of CDK4/6 and resultant G1 cell cycle growth arrest. […] We next assessed the level of apoptosis by FITC-annexin V incorporation in each of these cell lines.
(§6) Huh7, CHLA-255, or Jeko-1 cells were seeded at 1.5 × 10^6 cells in 60-mm tissue culture dishes and allowed to adhere overnight. […] Cells were released with Accutase (Innovative Cell Technologies, San Diego, CA), washed with PBS and divided for either staining with the FITC Annexin V Apoptosis Detection Kit (BD Biosciences, San Jose, CA) or overnight fixation with ethanol followed by staining with propidium iodide (Roche, Basel, Switzerland) according to each manufacturers’ instructions. Cell staining was analyzed with the FACSCalibur flow cytometer (BD Biosciences) and FlowJo (FlowJo LLC, Ashland, Oregon) and ModFit LT (Verity Software House, Topsham, ME) software packages.

CHLA-255 cells = experiment: Propidium iodide flow cytometry cell cycle analysis, CHLA-255; assay type: cell-based; settings: 24 h
Experimental: as §5, §6

[4] = test system: JeKo-1 subcutaneous xenografts; experiment: JeKo-1 subcutaneous xenograft in NGS mice; assay type: in vivo; settings: 40 mg/kg oral gavage, one week
Experimental: (§7) Asterisks denote p ≤ 0.05 in comparison with vehicle control by unpaired Student’s t test.
(§8) All procedures involving animals were approved by the UCSD Animal Care Committee, which serves to ensure that all federal guidelines concerning animal experimentation are met. Six to eight week old NGS mice were implanted with 10^7 Huh7 or Jeko-1 cells in the right flank. When tumors reached ∼100 mm^3 after tumor implantation, animals were divided into four groups (n = 8 per group). […] Mice were treated for 1 week by oral gavage, 5 times per week.

Huh7 cells [5] = experiment: FITC-annexin V apoptosis assay, Huh7; assay type: cell-based; settings: treatment at the IC50, 24 h
Experimental: as §5, §6

[6] = test system: Huh7 subcutaneous xenografts; experiment: Huh7 subcutaneous xenograft in NGS mice; assay type: in vivo; settings: 30 mg/kg oral gavage, one week
Experimental: as §7, §8

CDK4 = test system: CDK4; design: method as in PMID 32793389; settings: previously identified; cited from earlier work
JeKo-1 cells [7] = experiment: Propidium iodide flow cytometry cell cycle analysis, JeKo-1; assay type: cell-based; settings: 24 h
Experimental: as §5, §6

HCT116 cells = experiment: CellTiter-Glo cell viability assay, HCT116; assay type: cell-based; settings: Homo sapiens, HCT-116, 48 h, read-out: IC50 anti-proliferative activity, colon carcinoma (HCT116)
From the text: as §3, §4

T2 sequence (P42336 whole entry): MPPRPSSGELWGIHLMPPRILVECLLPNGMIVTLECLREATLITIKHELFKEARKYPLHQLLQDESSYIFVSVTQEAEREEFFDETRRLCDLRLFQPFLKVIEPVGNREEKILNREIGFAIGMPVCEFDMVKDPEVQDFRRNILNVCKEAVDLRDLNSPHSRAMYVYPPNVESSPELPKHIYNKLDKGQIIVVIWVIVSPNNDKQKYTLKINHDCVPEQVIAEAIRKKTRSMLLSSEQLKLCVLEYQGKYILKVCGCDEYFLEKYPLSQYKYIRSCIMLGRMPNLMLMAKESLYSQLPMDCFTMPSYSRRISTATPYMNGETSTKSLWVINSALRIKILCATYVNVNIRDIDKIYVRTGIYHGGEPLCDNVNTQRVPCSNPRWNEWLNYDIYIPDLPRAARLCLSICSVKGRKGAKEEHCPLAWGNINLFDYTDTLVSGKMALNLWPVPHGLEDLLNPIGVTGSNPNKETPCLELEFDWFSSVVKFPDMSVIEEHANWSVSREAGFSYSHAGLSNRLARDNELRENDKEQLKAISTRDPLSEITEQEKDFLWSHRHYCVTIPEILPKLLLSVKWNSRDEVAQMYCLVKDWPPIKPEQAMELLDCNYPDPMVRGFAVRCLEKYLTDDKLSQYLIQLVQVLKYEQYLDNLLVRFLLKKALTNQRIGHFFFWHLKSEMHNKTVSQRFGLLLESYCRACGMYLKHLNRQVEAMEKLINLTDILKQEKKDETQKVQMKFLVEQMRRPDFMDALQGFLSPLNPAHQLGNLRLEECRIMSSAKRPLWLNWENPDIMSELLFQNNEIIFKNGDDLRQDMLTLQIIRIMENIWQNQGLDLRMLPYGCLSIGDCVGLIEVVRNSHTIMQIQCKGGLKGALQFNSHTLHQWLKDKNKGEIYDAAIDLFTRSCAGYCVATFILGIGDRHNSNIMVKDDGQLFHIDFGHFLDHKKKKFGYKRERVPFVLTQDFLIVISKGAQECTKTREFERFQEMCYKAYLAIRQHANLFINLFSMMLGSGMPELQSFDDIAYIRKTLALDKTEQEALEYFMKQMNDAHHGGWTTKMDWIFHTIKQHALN
T2 sequence (P27986 whole entry partner): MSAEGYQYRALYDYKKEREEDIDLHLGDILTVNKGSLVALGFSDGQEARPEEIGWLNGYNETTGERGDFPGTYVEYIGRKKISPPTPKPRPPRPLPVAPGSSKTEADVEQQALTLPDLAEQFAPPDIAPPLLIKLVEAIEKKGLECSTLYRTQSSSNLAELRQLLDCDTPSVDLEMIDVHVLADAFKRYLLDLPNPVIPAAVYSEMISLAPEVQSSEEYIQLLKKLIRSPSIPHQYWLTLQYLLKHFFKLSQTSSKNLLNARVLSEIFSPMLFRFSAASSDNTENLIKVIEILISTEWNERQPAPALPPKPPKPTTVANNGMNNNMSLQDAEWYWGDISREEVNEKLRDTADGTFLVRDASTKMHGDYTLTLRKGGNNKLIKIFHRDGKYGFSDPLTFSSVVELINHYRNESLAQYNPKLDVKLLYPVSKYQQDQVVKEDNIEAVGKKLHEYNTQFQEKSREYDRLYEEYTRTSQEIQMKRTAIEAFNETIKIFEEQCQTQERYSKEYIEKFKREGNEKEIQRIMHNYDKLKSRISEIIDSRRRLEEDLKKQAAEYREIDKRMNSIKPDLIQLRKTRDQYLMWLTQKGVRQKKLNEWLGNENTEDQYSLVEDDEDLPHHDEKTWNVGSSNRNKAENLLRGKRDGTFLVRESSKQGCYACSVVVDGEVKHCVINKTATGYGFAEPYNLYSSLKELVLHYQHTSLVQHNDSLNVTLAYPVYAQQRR

| IC50 (BRD4BD2) [nM] | IC50 (PI3Kα) [nM] | IC50 (BRD4BD1) [nM] | IC50 (SKNBE-2 cells) [nM] | SMILES | IC50 (JeKo-1 cells [1]) [nM] | cytotoxic activity in prostate cancer cell line PC3 (PC3 cells) | IC50 (Z138 cells) [nM] | IC50 (Mino cells) [nM] | AKT phosphorylation at Ser473 [2] | further results |
| --- | --- | --- | --- | --- | --- | --- | --- | --- | --- | --- |
| 15700 | 48700 | 388 |  | O=c1cc(N2CCNCC2)oc2c(-c3ccc4c(c3)OCCO4)csc12 [SF2523P] |  |  |  |  |  |  |
| 2810 | 5700 | 27 | 15000 | O=C(NCc1cccnc1)c1cc(-c2csc3c(=O)cc(N4CCNCC4)oc23)cc2c1OCCO2 [SRX3212P] | 3100 | Neither inhibitor sensitized | 2900 | 3900 | did not decrease AKT phosphorylation |  |
|  |  |  |  | CN(C)C(=O)c1cc2cnc(Nc3ccc(-c4csc5c(=O)cc(N6CCOCC6)oc45)cc3)nc2n1C1CCCC1 [SRX3177] |  |  |  |  |  | cell cycle arrest at higher doses (near the IC50), Huh7 (Huh7 cells [3]): induced G2 phase growth arrest; cell cycle arrest at low dosage (near the IC10), Huh7 (Huh7 cells [3]): induction of G1 cell cycle arrest; cell cycle arrest at low dosage (near the IC10), CHLA-255 (CHLA-255 cells): induction of G1 cell cycle arrest; tumor growth vs vehicle control, JeKo-1 xenograft [4]: significant abrogation of tumor growth; induction of early apoptosis, Huh7 (Huh7 cells [5]): ~ threefold; tumor growth vs vehicle control, Huh7 xenograft [6]: significant abrogation of tumor growth; mortality (mouse, in vivo, po): no treatment-related death; adverse effects / toxicity (oral gavage, one week): no adverse effects were noted; animal weight (oral gavage, one week, vs vehicle): remained the same; IC50 (CDK4): 2.5 nM; cell cycle arrest at higher doses (near the IC50), JeKo-1 (JeKo-1 cells [7]): induced G2 phase growth arrest; cell cycle arrest at low dosage (near the IC10), JeKo-1 (JeKo-1 cells [7]): induction of G1 cell cycle arrest |
| 32 | 22 | 3.7 | 3200 | O=C(NCc1cccnc1)c1cc(-c2csc3c(=O)cc(N4CCOCC4)oc23)cc2c1OCCO2 [SRX3212] | 280 | Neither inhibitor sensitized | 240 | 440 | concomitant decrease in levels of AKT phosphorylation at Ser473 | IC50 (HCT116 cells): 1300 nM; increase in potency of SRX3212 compared to SRX3212P (BRD4BD1; BRD4BD1): sevenfold |
